Reference: US4395417A, “Antihyperlipidemic compositions” (Research Corporation, priority 1980, dated 1983)
Read-outs that look alike come from different tables or passages of the source.

How the values were obtained:
serum triglyceride = test: Serum triglyceride levels of male mice (Hycel commercial kits); format: in vivo, male CF1 mice; details: Mus musculus, ip, 336 h
Protocol: (§1) For hypolipidemic activity, the compounds were tested at 20 mg/kg/day administered I.P. to male CF1 mice (~30 g). On days 9 and 16 blood was collected by tail-vein bleeding. Serum cholesterol was determined by the Liebermann-Burchard reaction. Serum triglyceride levels were determined using the Hycel commercial kits on a separate group of mice, which were bled on day 14.

Acetyl-CoA Carboxylase = molecular target: T1, Acetyl-CoA Carboxylase (Mus musculus, UniProt Q5SWU9); test: In vitro acetyl coenzyme A carboxylase activity (method of Greenspan and Lowenstein); format: biochemical; details: Table 2, N = 6, x ± S.D., control 32,010 dpm/gm wet tissue/30 min.
T1 construct: 32,010 dpm/gm wet tissue/30 min; from tissue

Acetyl-CoA Synthetase = molecular target: T2, Acetyl-CoA Synthetase (Mus musculus, UniProt Q9QXG4); test: In vitro acetyl coenzyme A synthetase activity (method of Goodridge); format: biochemical, mice; details: for Acetyl-CoA Synthetase: Table 2, N = 6, x ± S.D., control 28.5 mg acetyl CoA formed/gm wet tissue/30 min.; for in vitro AcCoA synthetase: Table 3, N = 6, control 10.8 mg/g wet tissue
T2 construct: gm wet tissue/30 min; from tissue

Citrate Lyase = molecular target: T3, Citrate Lyase (Mus musculus, UniProt Q91V92); test: In vitro effect on citrate lyase; format: biochemical; details: Table 2, N = 6, x ± S.D., control 30.5 mg of citrate hydrolyzed/gm wet tissue/30 min.
T3 construct: 30.5 mg of citrate hydrolyzed/gm wet tissue/30 min; from tissue
T3 sequence (Q91V92 1-1091): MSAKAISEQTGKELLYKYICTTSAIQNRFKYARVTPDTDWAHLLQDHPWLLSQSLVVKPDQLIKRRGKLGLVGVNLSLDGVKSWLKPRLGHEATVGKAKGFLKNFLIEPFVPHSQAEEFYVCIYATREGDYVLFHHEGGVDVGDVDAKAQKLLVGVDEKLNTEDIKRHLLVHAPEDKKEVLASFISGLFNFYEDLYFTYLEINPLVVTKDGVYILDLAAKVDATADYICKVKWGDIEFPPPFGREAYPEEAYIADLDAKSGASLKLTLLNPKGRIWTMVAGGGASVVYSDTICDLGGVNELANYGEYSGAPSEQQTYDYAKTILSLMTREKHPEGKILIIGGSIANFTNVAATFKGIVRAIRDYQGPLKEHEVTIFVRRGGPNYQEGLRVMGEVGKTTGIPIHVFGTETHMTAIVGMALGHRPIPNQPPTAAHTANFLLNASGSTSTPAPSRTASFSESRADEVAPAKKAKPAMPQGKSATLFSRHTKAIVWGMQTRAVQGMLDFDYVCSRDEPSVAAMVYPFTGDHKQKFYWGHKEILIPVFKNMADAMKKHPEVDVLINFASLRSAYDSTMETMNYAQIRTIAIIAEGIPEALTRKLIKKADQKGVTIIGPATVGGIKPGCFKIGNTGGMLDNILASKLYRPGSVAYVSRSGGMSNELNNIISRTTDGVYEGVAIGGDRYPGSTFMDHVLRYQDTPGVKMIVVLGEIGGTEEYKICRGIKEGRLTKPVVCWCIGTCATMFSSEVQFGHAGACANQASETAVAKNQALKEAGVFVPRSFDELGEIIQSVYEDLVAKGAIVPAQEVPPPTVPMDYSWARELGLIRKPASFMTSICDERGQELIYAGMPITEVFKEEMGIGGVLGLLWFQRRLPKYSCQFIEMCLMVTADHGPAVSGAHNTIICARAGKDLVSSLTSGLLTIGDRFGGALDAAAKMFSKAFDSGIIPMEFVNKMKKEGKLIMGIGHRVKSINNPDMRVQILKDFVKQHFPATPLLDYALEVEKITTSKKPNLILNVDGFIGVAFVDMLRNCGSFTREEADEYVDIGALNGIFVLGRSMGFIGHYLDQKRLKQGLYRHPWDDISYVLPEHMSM

Fatty Acid Synthetase = molecular target: T4, Fatty Acid Synthetase (Mus musculus, UniProt P19096); test: In vitro effect on fatty acid synthetase; format: biochemical; details: Table 2, N = 6, x ± S.D.
T4 construct: gm wet tissue/30 min; from tissue

serum cholesterol = test: Serum cholesterol of male CF1 mice (Liebermann-Burchard reaction); format: in vivo; details: Mus musculus, ip
Protocol: as §1

[1] = Table 1, 20 mg/kg/day I.P., male mice, N = 6, 14th day, control value 137 mg %, read-out: Serum Triglyceride, 14th day
[2] = 216 h, Table 1, 20 mg/kg/day I.P., male CF1 mice, N = 6, 9th day, control value 118 mg %, read-out: Serum Cholesterol, 9th day
[3] = 384 h, Table 1, 20 mg/kg/day I.P., male CF1 mice, N = 6, 16th day, control value 122 mg %, read-out: Serum Cholesterol, 16th day
[4] = Table 3, mice, N = 6, control 138 mg %, read-out: serum triglycerides
[5] = 216 h, Table 3, mice, N = 6, 9th day, control 115 mg %, read-out: serum cholesterol, 9th day
[6] = 384 h, Table 3, mice, N = 6, 16th day, control 118 mg %, read-out: serum cholesterol, 16th day

T2 sequence (Q9QXG4 whole entry): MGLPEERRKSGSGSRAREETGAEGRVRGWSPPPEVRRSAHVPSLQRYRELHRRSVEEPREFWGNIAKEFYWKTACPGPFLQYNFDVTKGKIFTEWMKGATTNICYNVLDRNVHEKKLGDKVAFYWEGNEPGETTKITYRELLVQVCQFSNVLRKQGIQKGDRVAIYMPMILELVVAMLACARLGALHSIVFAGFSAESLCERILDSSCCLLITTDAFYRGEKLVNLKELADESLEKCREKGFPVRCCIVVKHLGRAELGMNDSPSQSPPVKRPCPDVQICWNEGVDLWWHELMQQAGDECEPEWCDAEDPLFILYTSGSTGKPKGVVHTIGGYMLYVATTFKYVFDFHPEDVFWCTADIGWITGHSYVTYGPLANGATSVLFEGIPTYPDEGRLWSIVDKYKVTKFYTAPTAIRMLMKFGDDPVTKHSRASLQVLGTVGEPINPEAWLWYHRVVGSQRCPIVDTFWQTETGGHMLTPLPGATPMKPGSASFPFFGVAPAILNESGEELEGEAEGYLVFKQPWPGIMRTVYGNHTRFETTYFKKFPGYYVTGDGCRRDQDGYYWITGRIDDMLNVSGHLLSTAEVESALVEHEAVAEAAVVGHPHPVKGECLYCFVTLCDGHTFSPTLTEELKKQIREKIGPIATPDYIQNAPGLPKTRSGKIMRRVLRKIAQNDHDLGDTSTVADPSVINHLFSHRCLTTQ
T4 sequence (P19096 whole entry): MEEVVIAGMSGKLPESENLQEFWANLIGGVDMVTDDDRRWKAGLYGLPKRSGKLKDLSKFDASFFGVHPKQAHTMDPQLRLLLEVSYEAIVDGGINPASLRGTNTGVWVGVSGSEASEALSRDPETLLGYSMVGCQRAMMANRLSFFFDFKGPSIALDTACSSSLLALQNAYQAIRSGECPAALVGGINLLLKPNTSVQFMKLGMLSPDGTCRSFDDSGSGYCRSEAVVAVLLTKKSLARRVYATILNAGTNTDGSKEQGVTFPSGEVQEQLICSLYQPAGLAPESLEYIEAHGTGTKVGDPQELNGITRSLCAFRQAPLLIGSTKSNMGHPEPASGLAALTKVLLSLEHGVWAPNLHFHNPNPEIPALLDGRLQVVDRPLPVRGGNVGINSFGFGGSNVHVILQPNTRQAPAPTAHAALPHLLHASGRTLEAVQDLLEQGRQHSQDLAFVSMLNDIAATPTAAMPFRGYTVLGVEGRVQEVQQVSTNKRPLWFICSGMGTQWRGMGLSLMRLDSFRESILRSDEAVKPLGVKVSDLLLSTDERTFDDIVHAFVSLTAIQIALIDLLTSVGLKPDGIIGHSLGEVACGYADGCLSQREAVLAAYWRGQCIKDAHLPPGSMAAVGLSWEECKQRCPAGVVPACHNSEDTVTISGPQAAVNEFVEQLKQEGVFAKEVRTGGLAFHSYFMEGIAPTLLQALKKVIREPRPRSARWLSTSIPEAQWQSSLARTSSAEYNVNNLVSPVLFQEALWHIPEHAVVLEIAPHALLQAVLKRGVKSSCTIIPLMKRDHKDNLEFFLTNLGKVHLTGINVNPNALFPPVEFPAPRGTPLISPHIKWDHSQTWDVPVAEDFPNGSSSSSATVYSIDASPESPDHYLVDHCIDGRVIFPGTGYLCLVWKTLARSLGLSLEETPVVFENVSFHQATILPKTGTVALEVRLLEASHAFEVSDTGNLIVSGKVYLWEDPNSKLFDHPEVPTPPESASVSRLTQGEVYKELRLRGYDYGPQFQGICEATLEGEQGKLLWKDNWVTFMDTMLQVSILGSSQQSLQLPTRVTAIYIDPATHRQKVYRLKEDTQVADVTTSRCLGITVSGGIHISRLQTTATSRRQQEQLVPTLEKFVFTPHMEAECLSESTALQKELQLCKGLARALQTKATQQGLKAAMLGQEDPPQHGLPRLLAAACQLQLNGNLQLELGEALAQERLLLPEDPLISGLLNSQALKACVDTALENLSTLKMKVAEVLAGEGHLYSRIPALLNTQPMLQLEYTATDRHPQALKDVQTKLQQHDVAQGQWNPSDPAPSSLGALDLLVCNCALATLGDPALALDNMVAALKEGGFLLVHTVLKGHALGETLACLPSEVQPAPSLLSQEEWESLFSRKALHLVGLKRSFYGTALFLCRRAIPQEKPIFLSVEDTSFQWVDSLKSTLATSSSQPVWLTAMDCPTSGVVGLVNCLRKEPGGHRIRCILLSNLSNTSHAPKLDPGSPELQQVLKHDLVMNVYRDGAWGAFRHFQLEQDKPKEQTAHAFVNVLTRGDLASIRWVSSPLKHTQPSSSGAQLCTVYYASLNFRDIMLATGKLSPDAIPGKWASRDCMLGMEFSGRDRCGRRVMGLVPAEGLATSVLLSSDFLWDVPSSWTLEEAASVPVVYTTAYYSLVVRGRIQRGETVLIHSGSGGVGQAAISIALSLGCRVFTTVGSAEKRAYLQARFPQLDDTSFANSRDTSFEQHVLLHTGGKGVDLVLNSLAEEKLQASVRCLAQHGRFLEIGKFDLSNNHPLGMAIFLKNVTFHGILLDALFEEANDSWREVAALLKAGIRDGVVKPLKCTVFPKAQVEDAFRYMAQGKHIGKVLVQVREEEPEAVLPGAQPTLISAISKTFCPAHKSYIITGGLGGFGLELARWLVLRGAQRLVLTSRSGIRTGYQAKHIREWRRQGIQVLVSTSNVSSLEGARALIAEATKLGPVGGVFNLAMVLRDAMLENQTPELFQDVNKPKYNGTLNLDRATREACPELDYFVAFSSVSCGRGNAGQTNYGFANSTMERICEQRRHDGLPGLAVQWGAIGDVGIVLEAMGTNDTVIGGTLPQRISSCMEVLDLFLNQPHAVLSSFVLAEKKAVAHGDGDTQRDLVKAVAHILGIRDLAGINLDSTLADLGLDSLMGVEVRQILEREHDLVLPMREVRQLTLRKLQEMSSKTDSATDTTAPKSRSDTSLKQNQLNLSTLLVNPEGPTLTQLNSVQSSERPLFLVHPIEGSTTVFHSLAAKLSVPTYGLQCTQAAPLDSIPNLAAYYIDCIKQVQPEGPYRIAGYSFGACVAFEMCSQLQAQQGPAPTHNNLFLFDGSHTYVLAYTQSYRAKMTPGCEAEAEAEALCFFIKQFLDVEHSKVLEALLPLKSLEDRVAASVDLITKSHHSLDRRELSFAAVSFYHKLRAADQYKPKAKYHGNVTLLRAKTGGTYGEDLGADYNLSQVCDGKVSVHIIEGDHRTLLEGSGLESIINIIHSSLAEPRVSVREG

Acetyl-CoA Carboxylase (Acetyl-CoA Carboxylase)	Acetyl-CoA Synthetase (Acetyl-CoA Synthetase)	Citrate Lyase (Citrate Lyase)	Fatty Acid Synthetase (Fatty Acid Synthetase)	in vitro AcCoA synthetase (Acetyl-CoA Synthetase)	SMILES	response vs control in vivo at 20 mg/kg/day (serum triglyceride; [1])	response vs control in vivo at 20 mg/kg/day (serum cholesterol; [2])	response vs control in vivo at 20 mg/kg/day (serum cholesterol; [3])	response vs control in vivo at 20 mg/kg/day (serum triglyceride; [4])	response vs control in vivo at 20 mg/kg/day (serum cholesterol; [5])	response vs control in vivo at 20 mg/kg/day (serum cholesterol; [6])
–	–	–	–	85 ± 3 % Control	CC(=O)CCCCCN1C(=O)c2ccccc2C1=O [1-N--phthalimidoheptan-6-one]	–	–	–	88 ± 5%	71 ± 6%	75 ± 12%
–	–	–	–	68 ± 6 % Control	CC(=O)CCCCN1C(=O)c2ccccc2C1=O [1-N--phthalimidohexan-5-one]	–	–	–	77 ± 5%	65 ± 9%	65 ± 7%
–	–	–	–	62 ± 3 % Control	CC(=O)CCCN1C(=O)c2ccccc2C1=O [1-N--phthalimidopentan-4-one]	–	–	–	59 ± 13%	71 ± 6%	63 ± 5%
–	–	–	–	76 ± 8 % Control	O=C(O)CCCCN1C(=O)c2ccccc2C1=O [5-N--phthalimidovaleric]	–	–	–	54 ± 5%	83 ± 9%	77 ± 4%
–	–	–	–	68 ± 6 % Control	CCCCCN1C(=O)c2ccccc2C1=O [N--n-pentylphthalimide]	–	–	–	75 ± 16%	76 ± 5%	58 ± 3%
–	–	–	–	83 ± 2 % Control	CC(=O)OCCCCN1C(=O)c2ccccc2C1=O [N--phthalimidobutan-1-ol acetate]	–	–	–	88 ± 7%	93 ± 9%	66 ± 5%
–	–	–	–	81 ± 6 % Control	CC(=O)OCCN1C(=O)c2ccccc2C1=O [N--phthalimidoethyl acetate]	–	–	–	82 ± 7%	93 ± 13%	95 ± 1%
–	–	–	–	84 ± 2 % Control	CC(=O)OCCCN1C(=O)c2ccccc2C1=O [N--phthalimidopropan-1-ol acetate]	–	–	–	89 ± 9%	102 ± 4%	66 ± 2%

The remaining lines, values behind:

SMILES	Acetyl-CoA Carboxylase (Acetyl-CoA Carboxylase)	Acetyl-CoA Synthetase (Acetyl-CoA Synthetase)	Citrate Lyase (Citrate Lyase)	Fatty Acid Synthetase (Fatty Acid Synthetase)	in vitro AcCoA synthetase (Acetyl-CoA Synthetase)	response vs control in vivo at 20 mg/kg/day (serum triglyceride; [1])	response vs control in vivo at 20 mg/kg/day (serum cholesterol; [2])	response vs control in vivo at 20 mg/kg/day (serum cholesterol; [3])	response vs control in vivo at 20 mg/kg/day (serum triglyceride; [4])	response vs control in vivo at 20 mg/kg/day (serum cholesterol; [5])	response vs control in vivo at 20 mg/kg/day (serum cholesterol; [6])
O=C1NC(=O)c2cccc3cccc1c23 [1,8-Naphthalimide]	106 ± 6 % Control	63 ± 9 % Control	66 ± 6 % Control	86 ± 8 % Control	–	87 ± 12%	81 ± 6%	61 ± 7%	–	–	–
CC(=O)CCN1C(=O)c2cccc3cccc(c23)C1=O [1-N--(1,8-Naphthalimido)butan-3-one]	59 ± 8 % Control	88 ± 5 % Control	60 ± 5 % Control	103 ± 4 % Control	–	54 ± 15%	94 ± 12%	86 ± 9%	–	–	–
CC(=O)CCN1C(=O)c2ccccc2S1(=O)=O [1-N--(o-Benzosulfimido)butan-3-one]	12 ± 3 % Control	74 ± 9 % Control	47 ± 8 % Control	104 ± 7 % Control	–	51 ± 7%	60 ± 8%	62 ± 6%	–	–	–
CC(=O)CCN1C(=O)c2ccccc2C1=O [1-N--Phthalimidobutan-3-one]	17 ± 3 % Control	53 ± 12 % Control	34 ± 4 % Control	109 ± 7 % Control	53 ± 12 % Control	58 ± 7%	67 ± 11%	63 ± 7%	58 ± 7%	67 ± 11%	63 ± 7%
CC(=O)CCN1C(=O)CCC1=O [1-N--Succinimidobutan-3-one]	100 ± 5 % Control	58 ± 6 % Control	38 ± 7 % Control	81 ± 7 % Control	–	79 ± 15%	90 ± 9%	88 ± 7%	–	–	–
O=C(O)CN1C(=O)c2ccccc2C1=O [2-N--phthalimidoacetic acid]	–	–	–	–	72 ± 12 % Control	–	–	–	72 ± 9%	76 ± 7%	68 ± 7%
O=C(O)CCCN1C(=O)c2ccccc2C1=O [4-N--phthalimidobutyric acid]	–	–	–	–	64 ± 12 % Control	–	–	–	59 ± 14%	80 ± 7%	68 ± 6%
O=C(O)CCCCCN1C(=O)c2ccccc2C1=O [6-N--phthalimidocaproic acid]	–	–	–	–	59 ± 9 % Control	–	–	–	51 ± 12%	81 ± 6%	67 ± 3%
CCN1C(=O)c2ccccc2C1=O [N--ethylphthalimide]	–	–	–	–	82 ± 5 % Control	–	–	–	87 ± 5%	83 ± 4%	76 ± 2%
CN1C(=O)c2ccccc2C1=O [N--methylphthalimide]	–	–	–	–	66 ± 12 % Control	–	–	–	68 ± 8%	74 ± 4%	74 ± 8%
CCCCCCCN1C(=O)c2ccccc2C1=O [N--n-heptylphthalimide]	–	–	–	–	71 ± 5 % Control	–	–	–	84 ± 6%	99 ± 7%	72 ± 4%
CCCCCCN1C(=O)c2ccccc2C1=O [N--n-hexylphthalimide]	–	–	–	–	71 ± 12 % Control	–	–	–	84 ± 8%	96 ± 5%	66 ± 4%
CCCCCCCCN1C(=O)c2ccccc2C1=O [N--n-octylphthalimide]	–	–	–	–	76 ± 7 % Control	–	–	–	77 ± 4%	101 ± 7%	82 ± 3%
CCCN1C(=O)c2ccccc2C1=O [N--n-propylphthalimide]	–	–	–	–	67 ± 3 % Control	–	–	–	81 ± 9%	96 ± 4%	74 ± 5%
CC(=O)OCN1C(=O)c2ccccc2C1=O [N--phthalimidomethyl acetate]	–	–	–	–	62 ± 10 % Control	–	–	–	57 ± 25%	61 ± 9%	62 ± 4%
O=C1NC(=O)c2ccccc21.[K] [potassium phthalimide]	–	–	–	–	78 ± 6 % Control	–	–	–	88 ± 4%	63 ± 6%	78 ± 3%
